The values that follow come from PubChem BioAssay AID1996.

Converted amounts (≈) assume the structure as drawn.

The conditions of this data set: buffer; pH 7.4; 200.0 µM.
For orientation: solubility (kinetic) means solubility judged after dilution from a stock solution rather than from solid. In turn, `COc1cc2c(cc1OC)C(c1ccccc1C(F)(F)F)CC(=O)N2` (stereo not given) displayed a solubility (kinetic) of less than 0.8 µg/mL.
The figure for `Cc1nn(C)c(C)c1NC(=O)COc1ccccc1C#N` is greater than 42.6 µg/mL.
The value for `COc1cc(NC(=O)N[C@@H](CCSC)C(=O)O)cc(OC)c1` was greater than 49.3 µg/mL.
On to `O=S(=O)(Nc1cccc(-c2nc3cccnc3s2)c1)c1cccs1`, for which the solubility (kinetic) was found to be 0.9 µg/mL (≈ 2.41 µM).
The value for `O=C(O)c1c2c(nc3ccc(Cl)cc13)CCC2` was 32.1 µg/mL (≈ 130 µM).
The figure for `CCCC(NC(=O)c1ccc(Br)o1)c1nc2ccccc2[nH]1` (stereo not given) is 6.2 µg/mL (≈ 17.1 µM); for `O=C1NCCCCC1NS(=O)(=O)c1cccc(C(F)(F)F)c1` (stereo not given) it is greater than 50.4 µg/mL; for `O=C([O-])c1ncc(Cl)c(Cl)c1Cl.[NH4+]` it is greater than 36.5 µg/mL.
In turn, `CCN(CC)c1nc(-c2ccccc2)nc2c1sc(=S)n2CC` yielded a solubility (kinetic) of less than 0.2 µg/mL.
In turn, `COc1ccc(C(=O)NCCc2cnc[nH]2)cc1OC` displayed a kinetic solubility greater than 41.3 µg/mL.
The figure for `CCOc1cc(CN2CCCCCC2)ccc1OC` is 27.4 µg/mL (≈ 104 µM).
The figure for `O=S(=O)(NCc1cccnc1)c1ccc(Cl)c2ccccc12` is greater than 49.9 µg/mL; for `COc1ccc(C(=O)O)cc1S(N)(=O)=O` it is greater than 34.7 µg/mL.
For `Cn1cc(S(=O)(=O)NC2CCCC2)c(=O)n(C)c1=O`, the kinetic solubility was greater than 43.1 µg/mL.
As for `Cc1ccc(NC(=O)Cn2c([N+](=O)[O-])cnc2C)cc1`, the kinetic solubility is greater than 41.1 µg/mL.
The figure for `Cc1ccccc1CCN1CCCC(CN(C)CC(C)(C)C)C1` (stereo not given) is 15 µg/mL (≈ 47.4 µM); for `Clc1nccc(N2CCN(c3ccccc3Cl)CC2)n1` it is 13.3 µg/mL (≈ 43 µM).
The value for `Cc1cc([N+](=O)[O-])nn1CCCC(=O)NC1CCCCC1` was greater than 44.2 µg/mL; that for `CCOC(=O)C1C(CC)NC(=S)NC1(C)O` (stereo not given) was 35 µg/mL (≈ 142 µM); that for `COc1ccc(CCNC(=O)c2cccs2)cc1` was 38.7 µg/mL (≈ 148 µM).
Compound `NC1=NC(=O)/C(=C/c2ccc(Cl)cc2Cl)S1` registered a kinetic solubility of 1.3 µg/mL (≈ 4.76 µM).
`CCCn1c(=O)c(C(=O)NCc2ccco2)c(O)c2ccccc21` returned a kinetic solubility of less than 0.3 µg/mL.
The value for `COc1ccccc1-n1cc(-c2ccccc2)[nH]c1=S` was 3 µg/mL (≈ 10.6 µM).
With `Cc1cc(NC(=O)CSc2nc3cc(Cl)ccc3o2)no1`, the kinetic solubility came out at 0.5 µg/mL (≈ 1.54 µM).
The value for `COC(=O)c1ccc(C2NC(=O)CCC2[N+](=O)[O-])cc1` (stereo not given) was greater than 41.7 µg/mL; that for `COc1ccc(OC)c(N/C(N)=N/c2nc(C)cc(C)n2)c1` was 40.5 µg/mL (≈ 134 µM).
The value for `Br.Fc1ccccc1CNCc1ccc2c(c1)OCO2` was greater than 51 µg/mL.
The figure for `CC1CCN(C(=S)NC(=O)c2cccs2)CC1` is greater than 40.3 µg/mL; for `N#Cc1ccc(CN2CCN(C(=O)C3CC(=O)N(c4ccccc4F)C3)CC2)cc1` (stereo not given) it is greater than 61 µg/mL; for `Nc1ccc(Oc2ncccn2)c(Cl)c1` it is greater than 33.2 µg/mL.
Regarding `CCn1c(CO)nc2c1c(=O)[nH]c(=O)n2Cc1ccccc1`, the kinetic solubility was greater than 45 µg/mL.
With `O=S(=O)(c1cccs1)N1CN(C2CCCC2)c2nc3ccccc3nc21`, the solubility (kinetic) came to 8.1 µg/mL (≈ 21 µM).
`Cc1ccc(S(=O)(=O)NC(=O)c2cccc(N(C)C)c2)cc1` yielded a solubility (kinetic) greater than 47.8 µg/mL.
The figure for `CC(O)CNCCNCc1cccs1.Cl` (stereo not given) is greater than 43.1 µg/mL.
The value for `O=C(Cc1ccccc1[N+](=O)[O-])Nc1nccs1` was 7.3 µg/mL (≈ 27.7 µM).
In the case of `COC(=O)c1cc2c(=O)c3ccccc3oc2nc1/C=C/N(C)C`, the solubility (kinetic) was 30.1 µg/mL (≈ 92.8 µM).
The value for `CC(C)N(CCn1cnc2c([nH]c3ccccc32)c1=O)C(C)C` was 24.5 µg/mL (≈ 78.4 µM).
The value for `CCO/C([O-])=N/c1c[n+](N2CCOCC2)no1` was greater than 36.3 µg/mL.
Turning to `CC(=O)c1cccc(NC(=O)C2=CN3CCS(=O)(=O)N=C3C=C2)c1`, the solubility (kinetic) was 48.1 µg/mL (≈ 139 µM).
The figure for `S=C(NCc1ccco1)N1CCC(c2nc3ccccc3o2)CC1` is 11.3 µg/mL (≈ 33.1 µM); for `O=C(Nc1ccccc1)c1ccc(NC(=O)c2cccs2)cc1` it is less than 0.3 µg/mL; for `O=C(NCCN1CCOCC1)c1cc([N+](=O)[O-])ccc1Cl` it is greater than 47.1 µg/mL.
In turn, `Cc1cccnc1NC(=O)CNC(=O)C1CCCCC1` yielded a kinetic solubility greater than 41.3 µg/mL.
The value for `O=C(NC(=S)NCCc1ccccc1)c1ccccc1F` was 0.8 µg/mL (≈ 2.65 µM); that for `CCN(C(=O)CSc1nc2scc(-c3ccccc3)c2c(=O)n1C)C1CCS(=O)(=O)C1` (stereo not given) was 3.1 µg/mL (≈ 6.49 µM); that for `O=C(NCCCCc1ccccc1)c1cccc([N+](=O)[O-])c1` was 8.5 µg/mL (≈ 28.5 µM).
The compound `COc1ccc2c(c1)C1OCCC1C(c1ccco1)N2` (stereo not given) displayed a solubility (kinetic) greater than 40.7 µg/mL.
The value for `O=C(COc1ccc(F)c(Cl)c1)N1CCCCCCC1` was 32.8 µg/mL (≈ 109 µM).
`Cc1cc(OCC(=O)NC2CC2)c2c(C)cc(=O)oc2c1` yielded a kinetic solubility greater than 43.1 µg/mL.
The figure for `COc1ccc(S(=O)(=O)NCc2csc(C)n2)cc1OC` is greater than 49.3 µg/mL; for `Cc1ccc(NC(=O)Nc2ccccc2)nc1` it is 2.6 µg/mL (≈ 11.4 µM).
For the compound `CCCNC(=O)CSc1nccn1Cc1ccco1`, the kinetic solubility is greater than 41.9 µg/mL.
Compound `O=C1c2cccc3cccc(c23)C(=O)N1c1cccc(O)c1` came in with a solubility (kinetic) of 1.3 µg/mL (≈ 4.49 µM).
Regarding `COc1ccc(CC(=O)NCCN2CCOCC2)cc1`, the kinetic solubility is greater than 41.8 µg/mL.
With `COc1cccc(C(=O)OCC(=O)N2CCc3ccccc3C2)c1`, the solubility (kinetic) was found to be 46.1 µg/mL (≈ 142 µM).
`COc1cc(CSc2nc(-c3ccccc3)cc(=O)[nH]2)cc(OC)c1` registered a kinetic solubility of less than 0.4 µg/mL.
`OCCC1CN(C2CCC2)CCN1Cc1ccc(F)c(F)c1` (stereo not given) came in with a kinetic solubility of 43 µg/mL (≈ 139 µM).
Compound `CCNc1ccc(S(=O)(=O)N2CCCCC2)cn1` returned a solubility (kinetic) greater than 40.4 µg/mL.
The value for `O=C(COC(=O)c1cncc(Br)c1)NCc1cccs1` was 40.6 µg/mL (≈ 114 µM); that for `COC(=O)c1nn(-c2cccc(C(F)(F)F)c2)ccc1=O` was greater than 44.7 µg/mL; that for `COc1ccc(NC(=O)COC(=O)c2ccc([N+](=O)[O-])o2)cc1Cl` was 19.2 µg/mL (≈ 54.1 µM).
The value for `O=C1CSC(c2cccc(F)c2)N1c1ccccc1` (stereo not given) was greater than 41 µg/mL; that for `COc1ccc(CCNC(=O)COC(=O)C2CC2C)cc1` (stereo not given) was greater than 43.7 µg/mL; that for `O=C(COc1ccc2c(c1)OCO2)NCc1cccs1` was greater than 43.7 µg/mL.
The value for `Nc1ccc(N2CCOCC2)c(S(=O)(=O)Nc2ccccc2Cl)c1` was 31.7 µg/mL (≈ 86.2 µM).
Compound `Cn1c(=O)c([N+](=O)[O-])c(NCc2ccc3c(c2)OCO3)c2ccccc21` showed a solubility (kinetic) of 0.9 µg/mL (≈ 2.55 µM).
The figure for `Cc1ccc(OCC(=O)NC2CC(C)(C)NC(C)(C)C2)c(C)c1` is greater than 47.8 µg/mL; for `C=CCN(c1ccccc1OC)S(=O)(=O)c1cccc(C(=O)NC2=NCCS2)c1` it is 7.4 µg/mL (≈ 17.1 µM); for `COc1ccc(/C=N/N2CCOCC2)cc1Cn1cc([N+](=O)[O-])cn1` it is greater than 51.8 µg/mL.
Consider `CCCCCCOc1ccc(C(CC(=O)NC)C(=O)O)cc1` (stereo not given), for which the solubility (kinetic) was greater than 46.1 µg/mL.
The figure for `CN(C)CCCNc1oc(/C=C/c2ccccc2)nc1C#N` is greater than 44.5 µg/mL; for `CN(C)NC(=O)c1ccc([N+](=O)[O-])s1` it is greater than 32.3 µg/mL.
The compound `N#Cc1ccccc1NC(=O)COC(=O)CCc1ccccc1` gave a solubility (kinetic) greater than 46.3 µg/mL.
`O=C(NCc1ccc2c(c1)OCO2)c1ccc(Br)s1` registered a solubility (kinetic) of 1.9 µg/mL (≈ 5.58 µM).
`O=C(Nc1ccccc1O)c1ccc([N+](=O)[O-])cc1`: the solubility (kinetic) stood at 24.1 µg/mL (≈ 93.3 µM).
The value for `Cc1cccc(NC(=O)Nc2ccc(OCc3ccccc3)cc2)n1` was less than 0.2 µg/mL.
The value for `O=C(COC(=O)c1cccc(F)c1)NC(=O)NCc1ccccc1` was 2.4 µg/mL (≈ 7.27 µM); that for `Cc1cccc(CSc2nnc([C@@H]3CCCN3)o2)c1.Cl` was greater than 46.8 µg/mL.
Take `O=C(/C=C/c1c(F)cccc1Cl)NCCCN1CCOCC1`: the solubility (kinetic) is greater than 49 µg/mL.
The figure for `CNS(=O)(=O)c1cccc(C(=O)OC2CCOC2=O)c1` (stereo not given) is greater than 44.9 µg/mL; for `Cc1ccc(CCNC(=O)C2CCC(=O)N2CCc2ccccc2)cc1` (stereo not given) it is 47.1 µg/mL (≈ 134 µM).
Regarding `OCC(O)CN1CCCC1` (stereo not given), the kinetic solubility came to 21.4 µg/mL (≈ 147 µM).
As for `Cc1cnc(C(=O)NCCc2ccc(Cl)cc2)cn1`, the kinetic solubility was determined as 36 µg/mL (≈ 131 µM).
Consider `Cc1cccc(OCc2cc(-c3ccccc3)no2)c1C`, for which the kinetic solubility was less than 0.6 µg/mL.
Consider `NC(=O)c1ccc(NC(=O)C2CCCC2)cc1`, for which the kinetic solubility was greater than 34.8 µg/mL.
`Clc1ccc(CN2CCC(c3ccccc3)CC2)cc1` came in with a solubility (kinetic) of 4.3 µg/mL (≈ 15 µM).
The value for `O=C(O)c1cccc([N+](=O)[O-])c1C(=O)Nc1cccc2ccccc12` was 39.5 µg/mL (≈ 117 µM); that for `CC(CCc1ccccc1)NC(=O)C(=O)c1c[nH]c2ccccc12` (stereo not given) was 0.9 µg/mL (≈ 2.81 µM); that for `O=Cc1c(Nc2cccc(C(F)(F)F)c2)nc2ccccn2c1=O` was 1.7 µg/mL (≈ 5.1 µM).
For the compound `O=C(/C=C/c1cccc([N+](=O)[O-])c1)Nc1ccccn1`, the solubility (kinetic) was found to be 0.7 µg/mL (≈ 2.6 µM).
The figure for `Cc1ccc(NC(=O)CN2C(=O)NC(C)(c3ccc4c(c3)OCO4)C2=O)cc1` (stereo not given) is greater than 57.2 µg/mL.
The value for `Cc1ccc(C(=O)NCN2CCN(c3ccc(F)cc3)CC2)cc1` was greater than 49.1 µg/mL; that for `O=C(c1ccncc1)N1CCN(c2ccc3ccccc3n2)CC1` was greater than 47.8 µg/mL.
In turn, `O=C(O)Cn1nc(-c2ccccc2)cc1-c1ccccc1` registered a solubility (kinetic) greater than 41.7 µg/mL.
Take `COc1cccc(CNC(=O)CCN2C(=S)NC(C)(C)CC2C)c1` (stereo not given): the kinetic solubility was greater than 52.4 µg/mL.
The figure for `CC(NCC#Cc1ccccc1)C(O)c1ccccc1.Cl` (stereo not given) is 44.8 µg/mL; for `C=CCNC(=O)/C(C#N)=C/c1ccc2c(c1)OCCO2` it is 7 µg/mL (≈ 25.9 µM).
`COc1ccc(OC)c(NC(=O)COC(=O)COc2ccc(Nc3ccccc3)cc2)c1` gave a solubility (kinetic) of 15.7 µg/mL (≈ 36 µM).
Take `COc1ccc(OCCC(=O)Nc2ccccc2)cc1`: the kinetic solubility was greater than 40.7 µg/mL.
In turn, `O=C(CN1C(=O)c2ccccc2S1(=O)=O)c1ccc(O)c(O)c1` showed a kinetic solubility greater than 50 µg/mL.
The figure for `CCN1CCN(c2nc3c(C)cccn3c(=O)c2C=C(C#N)C#N)CC1` is 51.1 µg/mL (≈ 147 µM).
The figure for `CC1CN(CC(=O)Nc2ccc(S(N)(=O)=O)cc2)CC(C)O1` (stereo not given) is greater than 49.1 µg/mL.
Turning to `CC(C)Nc1nc2cccnc2s1`, the solubility (kinetic) was greater than 29 µg/mL.
The value for `CCn1nc(C(=O)NNC(=O)C(Cc2ccccc2)NC(N)=O)c2ccccc2c1=O` (stereo not given) was greater than 63.4 µg/mL; that for `CCc1nc2ccccc2c(C(=O)OCC(=O)NC2CC2)c1C` was greater than 46.9 µg/mL.
